These results are taken from publication PMC8264935 (ACS Omega, 2021).

The assay has as its system CbTA (ω-transaminase from Chloroflexi bacterium). Nature of the assay: HPLC initial rate, Michaelis-Menten nonlinear fit. Format: biochemical, Chloroflexota bacterium. Particulars: 0.02 mM PLP, glycine-NaOH pH 8.5, 45 °C.

Take `C[C@@H](N)c1ccccc1` [(R)-MBA]: the Km (20 mM pyruvate co-substrate) was found to be 14.7 mM.
For the compound `CC(=O)C(=O)O` [C1, pyruvate], under “20 mM (R)-MBA co-substrate”, the Km stood at 2.83 mM.
